{
  "source": "patent US8951507B2",
  "about": "“Formulation with irritation reducing action comprising bisabolol and [6]-paradol” (Symrise AG, priority 2009, dated 2015)",
  "key": {"[1]": {"conditions": "literature reports; cited from earlier work"}, "[2]": {"assay": "Stability in cosmetic compositions or products at varying pH (own experiments)", "assay_type": "physicochemical", "conditions": "basic, neutral or acidic cosmetic compositions or products", "description": "Furthermore, in contrast to gingerols and shogaols, in particular to gingerols, which are labile and prone to degradation (J. Pharm. Sci. 2001, 1658-1664), thus showing insufficient stability, according to own experiments [6]-paradol is very stable in cosmetic compositions or products, even at varying pH-values, i.e. in basic, neutral or acidic cosmetic compositions or products.\nThe synergistic combinations of bisabolol and [6]-paradol, i.e. the formulations according to the present invention, are preferably colourless, are advantageously of low odour and show good stability even at pH values […], which is of particular interest for several cosmetic products such as sunscreen formulations, soaps, deo sticks, alkaline hair colourations and oral care formulations like tooth pastes. The synergistic combinations of bisabolol and [6]-paradol are advantageously stable over a wide range of pH-values, generally in cosmetic compositions or products having a pH-value in the range of 4 to 10, in particular in cosmetic compositions or products having a pH-value in the range of 5 to 9."}, "[3]": {"tested_on": "PGE2 release of human skin cells (keratinocytes)", "assay": "Anti-Prostaglandin E2 (PGE2) assay, A23187-induced PGE2 release, ELISA", "assay_type": "cell-based", "conditions": "for IC50: primary human epidermal keratinocytes, 2 μM A23187 calcium ionophore, at least two independent experiments, read-out: IC50 (50% of PGE2 release is inhibited); for Maximum PGE2 inhibition: at optimum concentration, versus A23187-stimulated control; for Optimum: concentration giving maximum PGE2 inhibition", "method": "PGE2 is an important inflammatory mediator in the skin. Thus, the inhibiting effect of [6]-paradol and related compounds on (A23187-induced) PGE2 release of human skin cells (keratinocytes) is investigated.\nPrimary human epidermal keratinocytes are seeded into a 96 well microplate and are cultured in KGM medium to 60-80% confluency. Afterwards, the KGM medium is substituted by KGM medium depleted of hydrocortisone but containing the test compounds (test compound solutions are applied in medium in three different concentrations, each as a triple determination in three different wells, e.g. for [6]-paradol: in experiment 1 the following concentrations were used: 20 μM, 2 μM and 0.2 μM, in experiment 2 the following concentrations were used: 10 μM, 1 μM and 0.1 μM and in experiment 3 the following concentrations were used: 2.5 μM, 0.25 μM and 0.025 μM.\nThe cells are incubated for 30 minutes. Then, PGE2 release is stimulated by addition of 2 μM A23187 calcium ionophore. After further 30 min incubation, the PGE2 content of the supernatant is quantified in an ELISA (PGE2 Enzyme Immunoassay System from GE Healthcare).\nThe results set out above were obtained from at least two independent experiments. PGE2 inhibition was calculated in comparison to the calcium ionophore A23187-induced stimulated control (without addition of test compounds)."}},
  "note": "“Also recorded” adds a separate entry of the source. Where two headings read alike, the source gives them in different places.",
  "data": [
    {"smiles": "CCCCCCCC(=O)CCc1ccc(O)c(OC)c1", "note": "[[6]-Paradol, 1-(4-hydroxy-3-methoxyphenyl)-decan-3-one]", "values": [
      {"measurement": "Mutagenicity", "setting": "[1]", "value": "not mutagenic"},
      {"measurement": "Stability in cosmetic compositions or products", "setting": "[2]", "value": "very stable"},
      {"measurement": "IC50", "setting": "[3]; Keratinocyte", "value": 0.13, "unit": "µM"},
      {"measurement": "PGE2 inhibitory activity compared with the other tested compounds", "setting": "[3]; among [6]-paradol, [6]-gingerol, [8]-gingerol and [8]-paradol", "value": "most active; also recorded: highest activity"},
      {"measurement": "Maximum PGE2 inhibition", "setting": "[3]", "value": "90-100%"},
      {"measurement": "Optimum", "setting": "[3]", "value": 5, "unit": "µM"}
    ]},
    {"smiles": "CCCCCCCCCC(=O)CCc1ccc(O)c(OC)c1", "note": "[[8]-Paradol]", "values": [
      {"measurement": "Maximum PGE2 inhibition", "setting": "[3]", "value": "80-100%"},
      {"measurement": "Optimum", "setting": "[3]", "value": 10, "unit": "µM"},
      {"measurement": "IC50", "setting": "[3]", "value": "1.48 ± 1.21", "unit": "µM"}
    ]},
    {"smiles": "CCCCCCC[C@H](O)CC(=O)CCc1ccc(O)c(OC)c1", "note": "[[8]-Gingerol]", "values": [
      {"measurement": "Maximum PGE2 inhibition", "setting": "[3]", "value": "~70", "unit": "%"},
      {"measurement": "Optimum", "setting": "[3]", "value": 20, "unit": "µM"},
      {"measurement": "IC50", "setting": "[3]", "value": "1.42 ± 0.67", "unit": "µM"}
    ]},
    {"smiles": "CCCCC[C@H](O)CC(=O)CCc1ccc(O)c(OC)c1", "note": "[[6]-Gingerol]", "values": [
      {"measurement": "Mutagenicity", "setting": "[1]", "value": "potent mutagen"},
      {"measurement": "Maximum PGE2 inhibition", "setting": "[3]", "value": "~30", "unit": "%"},
      {"measurement": "Optimum", "setting": "[3]", "value": 5, "unit": "µM"},
      {"measurement": "IC50", "setting": "[3]", "value": "3.47 ± 4.08", "unit": "µM"}
    ]}
  ]
}
